Source: patent publication US10631540B2, “Plant disease control composition, and plant disease control method” (Sumitomo Chemical Company, Limited, priority 2015, dated 2020)

Tests used:
[1] = test system: Pythium damping-off pathogen (Pythium irregulare); test: Soybean seed treatment test against Pythium damping-off (Test Example 1); assay type: in vivo; details: soybean (Hatayutaka) seed treatment; dose rate gai/100 kg seed where present: ethaboxam 3.75, metalaxyl 1.0, oxathiapiprolin 3.75; grown 15° C. 5 days then 25° C. 10 days
Procedure: An acetone solution containing the compounds was prepared such that the amounts of compounds to be treated for seeds were set to the dose rate listed in Table 1. 10 g of seeds of soybean (Hatayutaka) and 80 μl of the acetone solution were added to a plastic container, the container was covered with a lid and then shaken, and then the seeds taken out of the container were left overnight, thereby obtaining treated seeds. A plastic pot was filled with culture soil, and the treated seeds were sowed and then were covered with culture soil mixed with seeds of grass turf which was infected with Pythium damping-off pathogen (Pythium irregulare). After irrigation, the seeds were grown at 15° C. for 5 days and then grown at 25° C. for 10 days. This area was set to a treated area. Further, soybeans were grown in the same manner as in the treated area except that a chemical agent was not applied to the seeds. This area was set to a non-treated area. The incidence of disease of plants in the treated area and the non-treated area were calculated using the following “Equation 1”. The control values were calculated using the following “Equation 2”. […] A: Incidence of disease of plants of non-treated area B: Incidence of disease of plants of treated area

[2] = test system: Pythium damping-off pathogen (Pythium ultimum); test: Soybean seed treatment test against Pythium damping-off (Test Example 2); assay type: in vivo; details: soybean (Hatayutaka) seed treatment; dose rate gai/100 kg seed where present: ethaboxam 3.75, metalaxyl 1.0, oxathiapiprolin 3.75; grown 15° C. 5 days then 25° C. 10 days
Procedure: An acetone solution containing the compounds was prepared such that the amounts of compounds to be treated for seeds were set to the dose rate listed in Table 2. 10 g of seeds of soybean (Hatayutaka) and 80 μl of the acetone solution were added to a plastic container, the container was covered with a lid and then shaken, and then the seeds taken out of the container were left overnight, thereby obtaining treated seeds. A plastic pot was filled with culture soil, and the treated seeds were sowed and then were covered with culture soil mixed with seeds of grass turf which was infected with Pythium damping-off pathogen (Pythium ultimum). After irrigation, the seeds were grown at 15° C. for 5 days and then grown at 25° C. for 10 days. This area was set to a treated area. Further, soybeans were grown in the same manner as in the treated area except that a chemical agent was not applied to the seeds. This area was set to a non-treated area. The incidence of disease of plants in the treated area and the non-treated area were calculated using the above-described “Equation 1”. The control values were calculated using the above-described “Equation 2”.

Structure (SMILES) | Control value (%) [1] [%] | Control value (%) [2] [%]
COCC(=O)N(c1c(C)cccc1C)C(C)C(=O)OC (racemic) [Metalaxyl, metalaxyl] | 6 | 0
CCNc1nc(CC)c(C(=O)NC(C#N)c2cccs2)s1 (stereo not drawn) [Ethaboxam, ethaboxam] | 9 | 14
Cc1cc(C(F)(F)F)nn1CC(=O)N1CCC(c2nc(C3=NOC(c4c(F)cccc4F)C3)cs2)CC1 (stereo not drawn) [Oxathiapiprolin, oxathiapiprolin] | 6 | 14
